Measured values taken from patent US20080255134A1 (Artesian Therapeutics, Inc., priority 2004, published 2008).
Read-outs that look alike come from different tables or passages of the source.

Experiments:
β1-adrenergic receptor = target: T1, β1-adrenergic receptor (Rattus norvegicus, UniProt P18090); assay: β1-adrenergic radioligand binding assay using rat cortical membranes; details: at 1000 nM concentration, read-out: β1-adrenergic percent inhibition
T1 construct: from tissue; host or cells: rat cortical membranes
Description: (§1) Non-selective β-adrenergic and β1-adrenergic radioligand binding assays were performed using rat cortical membranes; β2-adrenergic receptor assays were performed using membranes isolated from CHO cells expressing human, recombinant b2-adrenergic receptor; non-selective α1-adrenergic receptor assays were performed using rat forebrain membranes; and PDE3 binding assays were performed on human platelets. Values in percent illustrate percent inhibition at 1000 nM concentration.

α1-adrenergic receptor = assay: Non-selective α1-adrenergic receptor assay using rat forebrain membranes; format: binding
Description: as §1, with “The ability of Compounds 25 and 8c to inhibit PDE3 and β-adrenergic receptor activity was examined both in vitro and in vivo. […] Non-selective” for “Non-selective”

[1] = tested on: White New Zealand male rabbits; assay: In vivo β-adrenergic blockade, isoproterenol challenge (Protocol 1); design: species or system rabbit; details: for decrease of left ventricular contractility (% of isoproterenol effect): doses that completely diminished isoproterenol-dependent increase in heart rate: atenolol 1 mg/kg, carvedilol 0.3 mg/kg, Compound 8c 1 mg/kg, mean±SEM
Description: (§2) Studies were performed on White New Zealand male rabbits (2-3 kg weight). Animals were initially anesthetized with ketamine (50 mg/kg; IM) and xylazine (6 mg/kg, IM). Subsequently, animals were intubated (via tracheotomy; 3 mm tube) and ventilated with 2% isoflurane (mixed in 95% O2+5% CO2). Each rabbit was instrumented for LV pressure (3F Millar catheter) through right carotid artery, arterial pressure (3F catheter, Cook Instruments) through left femoral artery, which was connected to a fluid-filled pressure transducer (BD Instruments), and ECG. Both pressure transducers were zeroed against atmospheric pressure, and calibrated before each study using an analog manometer. Upon completion of instrumentation, isoflurane was reduced to 1.25%, and the animal was covered for maintenance of body core temperature. Arterial and LV blood pressures (LVP) and the ECG signals were simultaneously digitally recorded on a PC. The recording system (Gould Instruments) and the corresponding software (Ponema, Gould Instruments) facilitated detailed calculation of various parameters directly from all signals and record on a separate file with a 1 sec resolution. Upon completion of the study protocol, rabbits were euthenized by isoflurane overdose (5% for at least 1 minute) and cardiac arrest through IV infusion of 5 ml 3 molar potassium chloride.
(§3) Once the physiological variables were stable, effects of each drug on hemodynamics and ECG were determined based on two different protocols: 1) infusion of a compound of the present invention to determine the effects of the compound itself mainly on contractility, and other hemodynamic indices; and 2) infusion of a compound of the present invention while the system was challenged with 0.5 ug/kg isoproterenol to determine the beta-adrenergic antagonism properties of each tested compound.
(§4) White New Zealand male rabbits (2-3 kg) were anesthetized and ventilated (95% O2+5% CO2) with 1.25% isoflurane. Each animal was instrumented for LV pressure (Millar, through left carotid artery), arterial pressure (left femoral artery), infusion (jugular vein), and electrocardiogram. The animals were administered intravenously based on one of these protocols:
Protocol 1: β-adrenergic blockade (isoproterenol challenge).

[2] = tested on: White New Zealand male rabbits; assay: In vivo hemodynamic effects of compounds administered alone (Protocol 2); design: species or system rabbit; details: for mean arterial pressure: doses that completely diminished isoproterenol-dependent increase in heart rate, Protocol 2, FIG. 15; for left ventricular contractility when administered alone: protocol 2, relative to control, FIGS. 2, 12
Description: as §2, §3, §4
Protocol 2: PDE3 inhibition (effects of compounds when administered alone).

PDE3 = target: T2, PDE3 (Homo sapiens, UniProt Q14432); assay: In vitro assay for cAMP PDE-3 inhibitory activity; format: biochemical; details: human platelet cyclic AMP phosphodiesterase, bound stated
T2 construct: from tissue; host or cells: human platelets
Description: Human platelet cyclic AMP phosphodiesterase was prepared according to the method of Alvarez et al., Mol. Pharmacol. 29: 554 (1986). The PDE incubation medium contained 10 mM Tris-HCl buffer, pH 7.7, 10 mM MgSO4, and 1 μM […] (0.2 μCi) in a total volume of 1.0 mL. Test compounds were dissolved in DMSO immediately prior to addition to the incubation medium, and the resulting mixture was allowed to stand for 10 minutes prior to the addition of enzyme. Following the addition of PDE, the contents were mixed and incubated for 10 minutes at 30° C. Three assays each were performed for each of five test compound concentrations, the mean of the determinations (n=3) at each concentration was plotted, and IC50 values were determined graphically.
as §1, with “The ability of Compounds 25 and 8c to inhibit PDE3 and β-adrenergic receptor activity was examined both in vitro and in vivo. […] Non-selective” for “Non-selective”

[3] = target: T3, human recombinant beta-2 receptors (Homo sapiens, UniProt P07550); assay: β2-receptor radioligand binding, [125I] iodocyanopindolol, CHO-WT21 cells; details: at 100 nM
T3 construct: expressed in transfected cells; host or cells: CHO-WT21 cells
Description: as §1

[4] = target: T4, human recombinant beta-1 receptors (Homo sapiens, UniProt P08588); assay: β1-receptor radioligand binding, [125I] iodocyanopindolol, CHO-REX16 cells; details: at 100 nM
T4 construct: expressed in transfected cells; host or cells: CHO-REX16 cells
Description: […] receptor binding was measured in human recombinant beta-1 receptors expressed in CHO-REX16 cells, using [^125I] (-) iodocyanopindolol (2000 Ci/mmol) as the radioligand, as described in Kalaria et al., J. Neurochem. 53: 1772-81 (1998), and Minneman et al., Mol. Pharmacol. 16: 34-46 (1979).

[5] = tested on: naive anesthetized canines; assay: Contractility in naive anesthetized canines (protocol 2); format: in vivo, canine; details: administered alone (protocol 2), FIG. 17
[6] = read-out: PDE IC50 inhibition values

T4 sequence (P08588 whole entry): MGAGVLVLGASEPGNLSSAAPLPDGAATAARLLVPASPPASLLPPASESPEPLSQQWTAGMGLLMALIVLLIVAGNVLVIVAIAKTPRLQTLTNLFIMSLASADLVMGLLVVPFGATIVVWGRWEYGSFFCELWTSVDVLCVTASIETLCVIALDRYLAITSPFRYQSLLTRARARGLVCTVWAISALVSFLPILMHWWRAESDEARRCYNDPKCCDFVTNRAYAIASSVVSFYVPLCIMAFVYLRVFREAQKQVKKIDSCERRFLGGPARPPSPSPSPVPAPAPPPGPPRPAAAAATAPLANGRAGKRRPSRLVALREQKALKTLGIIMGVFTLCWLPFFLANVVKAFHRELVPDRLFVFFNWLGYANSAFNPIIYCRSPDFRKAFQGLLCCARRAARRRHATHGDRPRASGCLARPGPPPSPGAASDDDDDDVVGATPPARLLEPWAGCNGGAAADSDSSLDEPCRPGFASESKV
T2 sequence (Q14432 whole entry): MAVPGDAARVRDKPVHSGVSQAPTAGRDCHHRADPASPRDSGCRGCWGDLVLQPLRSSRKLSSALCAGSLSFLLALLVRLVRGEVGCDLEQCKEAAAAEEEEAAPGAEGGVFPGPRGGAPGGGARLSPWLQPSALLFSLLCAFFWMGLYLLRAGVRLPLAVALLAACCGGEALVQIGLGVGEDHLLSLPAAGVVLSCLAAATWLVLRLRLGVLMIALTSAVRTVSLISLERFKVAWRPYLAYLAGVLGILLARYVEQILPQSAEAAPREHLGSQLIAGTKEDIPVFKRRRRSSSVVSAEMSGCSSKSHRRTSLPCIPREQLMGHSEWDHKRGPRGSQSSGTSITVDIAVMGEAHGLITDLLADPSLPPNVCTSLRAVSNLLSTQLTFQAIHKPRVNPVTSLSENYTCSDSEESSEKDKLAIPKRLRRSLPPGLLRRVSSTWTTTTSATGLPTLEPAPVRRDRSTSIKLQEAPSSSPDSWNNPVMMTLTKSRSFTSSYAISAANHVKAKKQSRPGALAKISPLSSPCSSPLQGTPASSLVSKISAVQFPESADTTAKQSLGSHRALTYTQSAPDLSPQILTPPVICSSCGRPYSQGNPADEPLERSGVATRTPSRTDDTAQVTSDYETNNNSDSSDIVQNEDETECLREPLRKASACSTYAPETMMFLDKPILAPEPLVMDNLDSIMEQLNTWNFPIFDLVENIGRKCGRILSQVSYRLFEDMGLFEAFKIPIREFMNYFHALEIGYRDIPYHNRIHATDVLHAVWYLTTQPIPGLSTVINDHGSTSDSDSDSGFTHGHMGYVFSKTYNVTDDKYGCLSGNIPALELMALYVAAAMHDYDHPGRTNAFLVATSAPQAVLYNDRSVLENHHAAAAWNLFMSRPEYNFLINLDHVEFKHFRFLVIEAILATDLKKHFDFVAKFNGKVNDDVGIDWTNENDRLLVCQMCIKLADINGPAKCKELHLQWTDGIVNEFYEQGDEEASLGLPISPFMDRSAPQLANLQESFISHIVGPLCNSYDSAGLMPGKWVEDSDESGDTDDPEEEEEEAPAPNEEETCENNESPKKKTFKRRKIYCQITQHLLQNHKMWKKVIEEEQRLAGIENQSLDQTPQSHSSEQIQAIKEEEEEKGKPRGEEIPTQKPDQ
T3 sequence (P07550 whole entry): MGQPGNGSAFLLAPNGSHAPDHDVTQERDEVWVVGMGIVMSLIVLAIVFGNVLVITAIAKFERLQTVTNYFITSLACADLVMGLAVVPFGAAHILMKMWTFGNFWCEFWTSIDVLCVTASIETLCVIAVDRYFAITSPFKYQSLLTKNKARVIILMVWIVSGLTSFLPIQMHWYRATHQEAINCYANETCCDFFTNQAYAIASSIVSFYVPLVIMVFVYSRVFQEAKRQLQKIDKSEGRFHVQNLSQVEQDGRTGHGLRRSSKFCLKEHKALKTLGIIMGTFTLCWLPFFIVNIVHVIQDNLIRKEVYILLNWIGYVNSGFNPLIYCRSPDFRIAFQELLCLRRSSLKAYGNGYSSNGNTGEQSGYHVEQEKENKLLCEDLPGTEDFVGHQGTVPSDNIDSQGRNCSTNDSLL
T1 sequence (P18090 whole entry): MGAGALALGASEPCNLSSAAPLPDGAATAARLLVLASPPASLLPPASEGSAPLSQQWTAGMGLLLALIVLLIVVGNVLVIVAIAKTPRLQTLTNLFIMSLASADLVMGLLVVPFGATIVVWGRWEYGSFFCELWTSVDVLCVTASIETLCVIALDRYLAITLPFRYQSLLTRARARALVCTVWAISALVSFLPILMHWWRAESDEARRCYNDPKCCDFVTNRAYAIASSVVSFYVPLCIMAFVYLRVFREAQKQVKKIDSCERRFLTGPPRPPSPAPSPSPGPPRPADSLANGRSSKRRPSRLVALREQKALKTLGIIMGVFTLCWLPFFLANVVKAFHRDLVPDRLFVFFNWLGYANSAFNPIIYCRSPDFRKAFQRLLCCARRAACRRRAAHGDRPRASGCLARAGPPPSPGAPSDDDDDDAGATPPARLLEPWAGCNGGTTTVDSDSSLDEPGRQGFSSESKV

IC50 (PDE3; read-out: PDE3 inhibition IC50) [nM]	inhibition at 0.1 µM [3] [%]	IC50 (PDE3; [6]) [nM]	inhibition at 0.1 µM [4] [%]	Structure (SMILES)	further results
				CC(C)NCC(O)COc1ccc(CC(N)=O)cc1 (stereo not drawn) [Atenolol, reference compound]	inhibition at 1 µM (β1-adrenergic receptor): 23%; α1-adrenergic IC50, nM (α1-adrenergic receptor): inactive; decrease of left ventricular contractility (% of isoproterenol effect) [1]: 82±2%; mean arterial pressure [2]: decreased mean arterial pressure; left ventricular contractility when administered alone [2]: decreased contractility
< 1000	> 25			Cc1ccc(OC[C@@H](O)CNC2CCN(C(=O)COc3ccc(C4=NNC(=O)CC4)cc3Cl)CC2)cc1 [Compound 8p, 6-(3-chloro-4-{2-[4-(2-hydroxy-3-p-tolyloxy-propylamino)-piperidin-1-yl]-2-oxo-ethoxy}-phenyl)-4,5-dihydro-2H-pyridazin-3-one]	
< 1000	> 25	< 100	> 25	O=C1CCC(c2ccc(OCC(=O)N3CCC(NC[C@H](O)COc4ccccc4Br)CC3)c(Cl)c2)=NN1 [Compound 8d, 6-[4-(2-{4-[3-(2-bromo-phenoxy)-2-hydroxy-propylamino]-piperidin-1-yl}-2-oxo-ethoxy)-3-chloro-phenyl]-4,5-dihydro-2H-pyridazin-3-one]	
< 1000	> 25	< 100	> 25	CC(C)(CNC(=O)COc1ccc(C2=NNC(=O)CC2)cc1Cl)NCC(O)COc1cccc2[nH]c3ccccc3c12 (stereo not drawn) [Compound 49, N-{2-[3-(9H-carbazol-4-yloxy)-2-hydroxy-propylamino]-2-methyl-propyl}-2-[2-chloro-4-(6-oxo-1,4,5,6-tetrahydro-pyridazin-3-yl)-phenoxy]-acetamide]	
				COc1ccccc1OCCNCC(O)COc1cccc2[nH]c3ccccc3c12 (stereo not drawn) [Carvedilol, reference compound]	IC50 (α1-adrenergic receptor): […]; contractility (LV+dP/dtmax) at ED50 ([1]; Compound 25 0.3 mg/kg, carvedilol 0.1 mg/kg, Protocol 1, FIG. 13): decreased this parameter; ED50 ([1]; Oryctolagus cuniculus, isoproterenol challenge (0.5 μg/kg), intravenous, read-out: ED50, dose that diminished isoproterenol-dependent increase in HR by 50%): 0.1 mg/kg; relaxation properties (Tau) at ED50 ([1]; compared to control, Protocol 1, FIG. 13): negative lusitropic effect; decrease of left ventricular contractility (% of isoproterenol effect) [1]: 82±7%; mean arterial pressure [2]: decreased mean arterial pressure; left ventricular contractility when administered alone [2]: decreased contractility; contractility in naive anesthetized canines [5]: decreased this parameter at the higher doses
< 1000		< 100	> 25	COCCc1ccc(OC[C@@H](O)CNCCOc2ccc(C3=NNC(=O)CC3)cc2Cl)cc1 [Compound 41, 6-[3-Chloro-4-(3-{(S)-2-hydroxy-propylamino]-ethoxy}-phenyl)-4,5-dihydro-2H-pyridazin-3-one]	
< 1000				O=C1CCC(c2ccc(OCC(=O)N3CCC(NCC(O)COc4cccc5[nH]c6ccccc6c45)CC3)c(Cl)c2)=NN1 (stereo not drawn) [Compound 63, 6-[4-(2-{4-[3-(9H-Carbazol-4-yloxy)-2-hydroxy-propylamino]-piperidin-1-yl}-2-oxo-ethoxy)-3-chloro-phenyl]-4,5-dihydro-2H-pyridazin-3-one]	
< 1000		< 100		O=C(COc1ccc(C2=NNC(=O)CC2)cc1Cl)NCCNCC(O)COc1cccc2[nH]c3ccccc3c12 (stereo not drawn) [Compound 70]	
< 1000				Cc1ccccc1OC[C@@H](O)CNC1CCN(C(=O)COc2ccc(C3=NNC(=O)CC3)cc2Cl)CC1 [Compound 8f, 6-(3-chloro-4-{2-[4-(2-hydroxy-3-o-tolyloxy-propylamino)-piperidin-1-yl]-2-oxo-ethoxy}-phenyl)-4,5-dihydro-2H-pyridazin-3-one]	
< 1000	> 25	< 100	> 25	O=C1CCC(c2ccc(OCC(=O)N3CCC(NC[C@H](O)COc4ccccc4C(F)(F)F)CC3)c(Cl)c2)=NN1 [Compound 8g, 6-[3-chloro-4-(2-{4-[2-hydroxy-3-(2-trifluoromethyl-phenoxy)-propylamino]-piperidin-1-yl}-2-oxo-ethoxy)-phenyl]-4,5-dihydro-2H-pyridazin-3-one]	

Structure (SMILES)	IC50 (PDE3; read-out: PDE3 inhibition IC50) [nM]	inhibition at 0.1 µM [3] [%]	IC50 (PDE3; [6]) [nM]	inhibition at 0.1 µM [4] [%]	further results
COCCc1ccc(OC[C@@H](O)CNCCCCOc2ccc(C3=NNC(=O)CC3)cc2Cl)cc1 [Compound 44]	< 1000			> 25	
